Tested on: IL-8
Experiment: Glucocorticoid transrepression assay, IL-8 inhibition (TR)
Type: cell-based
Settings: Homo sapiens; Table 1; NCl-H292 cells, TNFα 10 ng/ml
Experimental: Human Lung epithelial cell line NCl-H292 cells were dissociated from stock flask using 0.05% trypsin/0.53 mM EDTA. Cells were suspended in complete medium and counted. Cells were plated in 96-well flat-bottom plates at 20K cells /well in 0.2 ml/well. Plates were incubated for 24-48 hours until cells were between 75-90% confluent. Medium was aspirated and replaced with medium containing various concentrations of steroids or antagonists. After 1 hour incubation at 37°, TNFα (10 ng/ml final concentration in 0.2 ml) was added and the cells incubated overnight. Control wells with and without TNF were included on each plate, as well as wells with TNF in addition to a maximum (10 μM) concentration of dexamethasone. The cell culture medium was sampled and IL-6 and IL-8 cytokine production was measured using the MSD Multi-Spot immunoassay.

**Q.** With `CC12Cc3cnn(-c4ccccc4)c3C=C1CCC1C2[C@@H](O)CC2(C)C1CC[C@]2(O)C(=O)CSc1ccc2ccccc2n1` (stereo partly drawn) [Compound 15] as the molecule, how does the IC50 read?
**A.** 0.06 to 20 nM

**Q.** How did the IC50 turn out when `CC12Cc3cnn(-c4ccc(F)cc4)c3C=C1CCC1C2[C@@H](O)CC2(C)C1CC[C@]2(O)C(=O)CSc1nc2ccc(N)cc2s1` (stereo partly drawn) [Compound 102] was run?
**A.** 0.06 to 20 nM

**Q.** `Cn1c(SCC(=O)[C@@]2(O)CCC3C4CCC5=Cc6c(cnn6CCC#N)CC5(C)C4[C@@H](O)CC32C)nc2ccccc21` (stereo partly drawn) [Compound 48] was tested. Which IC50 did it give?
**A.** 66 to 400 nM

**Q.** `COc1ccc2nc(SCC(=O)[C@@]3(O)CCC4C5CCC6=Cc7c(cnn7-c7ccc(F)cc7)CC6(C)C5[C@@H](O)CC43C)sc2c1` (stereo partly drawn) [Compound 103] was tested. Which IC50 did it give?
**A.** 0.06 to 20 nM

**Q.** Which IC50 does the source give for `COc1ccc(-n2ncc3c2C=C2CCC4C([C@@H](O)CC5(C)C4CC[C@]5(O)C(=O)CSc4nc5ccccc5n4C)C2(C)C3)cc1` (stereo partly drawn) [Compound 86] here?
**A.** 66 to 400 nM

**Q.** Which IC50 does the source give for `CC12Cc3cnn(-c4ccc(F)cc4)c3C=C1CCC1C2[C@@H](O)CC2(C)C1CC[C@]2(O)C(=O)CSc1nccc2ccccc12` (stereo partly drawn) [Compound 11] here?
**A.** 0.06 to 20 nM

**Q.** `Cn1ncc2c1C=C1CCC3C([C@@H](O)CC4(C)C3CC[C@]4(O)C(=O)CSc3ccc4ccccc4n3)C1(C)C2` (stereo partly drawn) [Compound 23] was tested. Which IC50 did it give?
**A.** 66 to 400 nM

**Q.** Which IC50 does the source give for `CC12Cc3cnn(-c4ccccn4)c3C=C1CCC1C2[C@@H](O)CC2(C)C1CC[C@]2(O)C(=O)CSc1cnc2ccccc2n1` (stereo partly drawn) [Compound 44] here?
**A.** 401 to 1000 nM

**Q.** Which IC50 does the source give for `Cc1nc(SCC(=O)[C@@]2(O)CCC3C4CCC5=Cc6c(cnn6C6CCCCC6)CC5(C)C4[C@@H](O)CC32C)sc1C` (stereo partly drawn) [Compound 130] here?
**A.** 0.06 to 20 nM

**Q.** How did the IC50 turn out when `Cc1ccnc(SCC(=O)[C@@]2(O)CCC3C4CCC5=Cc6c(cnn6-c6ccccn6)CC5(C)C4[C@@H](O)CC32C)n1` (stereo partly drawn) [Compound 45] was run?
**A.** 21 to 65 nM

**Q.** With `CC12Cc3cnn(-c4ccccn4)c3C=C1CCC1C2[C@@H](O)CC2(C)C1CC[C@]2(O)C(=O)CSc1nc2ncccc2o1` (stereo partly drawn) [Compound 43] as the molecule, how does the IC50 read?
**A.** 21 to 65 nM

**Q.** For `CC12Cc3cnn(-c4ccc(F)cc4)c3C=C1CCC1C2[C@@H](O)CC2(C)C1CC[C@]2(O)C(=O)COc1nc2ccccc2[nH]1` (stereo partly drawn) [Compound 111], which IC50 is on record?
**A.** 0.06 to 20 nM

**Q.** With `CC12Cc3cnn(-c4ccc(F)cc4)c3C=C1CCC1C2[C@@H](O)CC2(C)C1CC[C@]2(O)C(=O)CSc1nc2cccnc2s1` (stereo partly drawn) [Compound 10] as the molecule, how does the IC50 read?
**A.** 0.06 to 20 nM

**Q.** How did the IC50 turn out when `Cn1c(SCC(=O)[C@@]2(O)CCC3C4CCC5=Cc6c(cnn6C6CCOCC6)CC5(C)C4[C@@H](O)CC32C)nc2ccccc21` (stereo partly drawn) [Compound 70] was run?
**A.** 21 to 65 nM

**Q.** How did the IC50 turn out when `Cc1cccc(SCC(=O)[C@@]2(O)CCC3C4CCC5=Cc6c(cnn6CCC#N)CC5(C)C4[C@@H](O)CC32C)n1` (stereo partly drawn) [Compound 61] was run?
**A.** 66 to 400 nM

**Q.** With `Cn1ncc2c1C=C1CCC3C([C@@H](O)CC4(C)C3CC[C@]4(O)C(=O)CSc3nc4ccccc4o3)C1(C)C2` (stereo partly drawn) [Compound 22] as the molecule, how does the IC50 read?
**A.** 66 to 400 nM

**Q.** How did the IC50 turn out when `Cn1ncc2c1C=C1CCC3C([C@@H](O)CC4(C)C3CC[C@]4(O)C(=O)CSc3nc4ncccc4o3)C1(C)C2` (stereo partly drawn) [Compound 29] was run?
**A.** 401 to 1000 nM

**Q.** `CC12Cc3cnn(-c4ccc(F)cc4)c3C=C1CCC1C2[C@@H](O)CC2(C)C1CC[C@]2(O)C(=O)CSc1cnc2ccccc2n1` (stereo partly drawn) [Compound 6] was tested. Which IC50 did it give?
**A.** 0.06 to 20 nM

**Q.** With `CC12Cc3cnn(-c4ccc(F)cc4)c3C=C1CCC1C2[C@@H](O)CC2(C)C1CC[C@]2(O)C(=O)CSc1ncnc2ccccc12` (stereo partly drawn) [Compound 98] as the molecule, how does the IC50 read?
**A.** 0.06 to 20 nM

**Q.** For `Cc1cccc(SCC(=O)[C@@]2(O)CCC3C4CCC5=Cc6c(cnn6-c6ccccn6)CC5(C)C4[C@@H](O)CC32C)n1` (stereo partly drawn) [Compound 47], which IC50 is on record?
**A.** 66 to 400 nM

**Q.** `COc1ccc(-n2ncc3c2C=C2CCC4C([C@@H](O)CC5(C)C4CC[C@]5(O)C(=O)CSc4nc5cccnc5s4)C2(C)C3)cc1` (stereo partly drawn) [Compound 87] was tested. Which IC50 did it give?
**A.** 66 to 400 nM

**Q.** `CC12Cc3cnn(-c4ccc(F)cc4)c3C=C1CCC1C2[C@@H](O)CC2(C)C1CC[C@]2(O)C(=O)COc1nc2ccccc2o1` (stereo partly drawn) [Compound 104] was tested. Which IC50 did it give?
**A.** 0.06 to 20 nM

**Q.** With `Cn1nnnc1SCC(=O)[C@@]1(O)CCC2C3CCC4=Cc5c(cnn5-c5ccc(F)cc5)CC4(C)C3[C@@H](O)CC21C` (stereo partly drawn) [Compound 100] as the molecule, how does the IC50 read?
**A.** 0.06 to 20 nM

**Q.** With `Cn1c(SCC(=O)[C@@]2(O)CCC3C4CCC5=Cc6c(cnn6-c6ccc(F)cc6)CC5(C)C4[C@@H](O)CC32C)nc2ccccc21` (stereo partly drawn) [Compound 2] as the molecule, how does the IC50 read?
**A.** 0.06 to 20 nM

Same assay, conditions: Homo sapiens; Table 1; NCl-H292 cells, TNFα 10 ng/ml; read-out: IL-8 inhibition (TR) Emax % inhibition

**Q.** How did the Emax turn out when `CC12Cc3cnn(-c4ccccc4)c3C=C1CCC1C2[C@@H](O)CC2(C)C1CC[C@]2(O)C(=O)CSc1ccc2ccccc2n1` (stereo partly drawn) [Compound 15] was run?
**A.** > 80%

**Q.** How did the Emax turn out when `CC12Cc3cnn(-c4ccc(F)cc4)c3C=C1CCC1C2[C@@H](O)CC2(C)C1CC[C@]2(O)C(=O)CSc1nc2ccc(N)cc2s1` (stereo partly drawn) [Compound 102] was run?
**A.** > 80%

**Q.** For `Cn1c(SCC(=O)[C@@]2(O)CCC3C4CCC5=Cc6c(cnn6CCC#N)CC5(C)C4[C@@H](O)CC32C)nc2ccccc21` (stereo partly drawn) [Compound 48], which Emax is on record?
**A.** < 60%

**Q.** With `COc1ccc2nc(SCC(=O)[C@@]3(O)CCC4C5CCC6=Cc7c(cnn7-c7ccc(F)cc7)CC6(C)C5[C@@H](O)CC43C)sc2c1` (stereo partly drawn) [Compound 103] as the molecule, how does the Emax read?
**A.** > 80%

**Q.** For `COc1ccc(-n2ncc3c2C=C2CCC4C([C@@H](O)CC5(C)C4CC[C@]5(O)C(=O)CSc4nc5ccccc5n4C)C2(C)C3)cc1` (stereo partly drawn) [Compound 86], which Emax is on record?
**A.** 70 to 80%

**Q.** `CC12Cc3cnn(-c4ccc(F)cc4)c3C=C1CCC1C2[C@@H](O)CC2(C)C1CC[C@]2(O)C(=O)CSc1nccc2ccccc12` (stereo partly drawn) [Compound 11] was tested. Which Emax did it give?
**A.** > 80%

**Q.** Which Emax does the source give for `Cn1ncc2c1C=C1CCC3C([C@@H](O)CC4(C)C3CC[C@]4(O)C(=O)CSc3ccc4ccccc4n3)C1(C)C2` (stereo partly drawn) [Compound 23] here?
**A.** 60 to 70%

**Q.** How did the Emax turn out when `CC12Cc3cnn(-c4ccccn4)c3C=C1CCC1C2[C@@H](O)CC2(C)C1CC[C@]2(O)C(=O)CSc1cnc2ccccc2n1` (stereo partly drawn) [Compound 44] was run?
**A.** < 60%

**Q.** For `Cc1nc(SCC(=O)[C@@]2(O)CCC3C4CCC5=Cc6c(cnn6C6CCCCC6)CC5(C)C4[C@@H](O)CC32C)sc1C` (stereo partly drawn) [Compound 130], which Emax is on record?
**A.** > 80%

**Q.** For `Cc1ccnc(SCC(=O)[C@@]2(O)CCC3C4CCC5=Cc6c(cnn6-c6ccccn6)CC5(C)C4[C@@H](O)CC32C)n1` (stereo partly drawn) [Compound 45], which Emax is on record?
**A.** > 80%

**Q.** `CC12Cc3cnn(-c4ccccn4)c3C=C1CCC1C2[C@@H](O)CC2(C)C1CC[C@]2(O)C(=O)CSc1nc2ncccc2o1` (stereo partly drawn) [Compound 43] was tested. Which Emax did it give?
**A.** 70 to 80%

**Q.** Which Emax does the source give for `CC12Cc3cnn(-c4ccc(F)cc4)c3C=C1CCC1C2[C@@H](O)CC2(C)C1CC[C@]2(O)C(=O)COc1nc2ccccc2[nH]1` (stereo partly drawn) [Compound 111] here?
**A.** > 80%

**Q.** `CC12Cc3cnn(-c4ccc(F)cc4)c3C=C1CCC1C2[C@@H](O)CC2(C)C1CC[C@]2(O)C(=O)CSc1nc2cccnc2s1` (stereo partly drawn) [Compound 10] was tested. Which Emax did it give?
**A.** > 80%

**Q.** How did the Emax turn out when `Cn1c(SCC(=O)[C@@]2(O)CCC3C4CCC5=Cc6c(cnn6C6CCOCC6)CC5(C)C4[C@@H](O)CC32C)nc2ccccc21` (stereo partly drawn) [Compound 70] was run?
**A.** > 80%

**Q.** Which Emax does the source give for `Cc1cccc(SCC(=O)[C@@]2(O)CCC3C4CCC5=Cc6c(cnn6CCC#N)CC5(C)C4[C@@H](O)CC32C)n1` (stereo partly drawn) [Compound 61] here?
**A.** 70 to 80%

**Q.** Which Emax does the source give for `Cn1ncc2c1C=C1CCC3C([C@@H](O)CC4(C)C3CC[C@]4(O)C(=O)CSc3nc4ccccc4o3)C1(C)C2` (stereo partly drawn) [Compound 22] here?
**A.** < 60%

**Q.** `Cn1ncc2c1C=C1CCC3C([C@@H](O)CC4(C)C3CC[C@]4(O)C(=O)CSc3nc4ncccc4o3)C1(C)C2` (stereo partly drawn) [Compound 29] was tested. Which Emax did it give?
**A.** < 60%

**Q.** `CC12Cc3cnn(-c4ccc(F)cc4)c3C=C1CCC1C2[C@@H](O)CC2(C)C1CC[C@]2(O)C(=O)CSc1cnc2ccccc2n1` (stereo partly drawn) [Compound 6] was tested. Which Emax did it give?
**A.** > 80%

**Q.** `CC12Cc3cnn(-c4ccc(F)cc4)c3C=C1CCC1C2[C@@H](O)CC2(C)C1CC[C@]2(O)C(=O)CSc1ncnc2ccccc12` (stereo partly drawn) [Compound 98] was tested. Which Emax did it give?
**A.** > 80%

**Q.** Which Emax does the source give for `Cc1cccc(SCC(=O)[C@@]2(O)CCC3C4CCC5=Cc6c(cnn6-c6ccccn6)CC5(C)C4[C@@H](O)CC32C)n1` (stereo partly drawn) [Compound 47] here?
**A.** > 80%

**Q.** For `COc1ccc(-n2ncc3c2C=C2CCC4C([C@@H](O)CC5(C)C4CC[C@]5(O)C(=O)CSc4nc5cccnc5s4)C2(C)C3)cc1` (stereo partly drawn) [Compound 87], which Emax is on record?
**A.** 60 to 70%

**Q.** `CC12Cc3cnn(-c4ccc(F)cc4)c3C=C1CCC1C2[C@@H](O)CC2(C)C1CC[C@]2(O)C(=O)COc1nc2ccccc2o1` (stereo partly drawn) [Compound 104] was tested. Which Emax did it give?
**A.** > 80%

**Q.** Which Emax does the source give for `Cn1nnnc1SCC(=O)[C@@]1(O)CCC2C3CCC4=Cc5c(cnn5-c5ccc(F)cc5)CC4(C)C3[C@@H](O)CC21C` (stereo partly drawn) [Compound 100] here?
**A.** > 80%

**Q.** How did the Emax turn out when `Cn1c(SCC(=O)[C@@]2(O)CCC3C4CCC5=Cc6c(cnn6-c6ccc(F)cc6)CC5(C)C4[C@@H](O)CC32C)nc2ccccc21` (stereo partly drawn) [Compound 2] was run?
**A.** > 80%
